Results on three compounds are retold here after ChEMBL document CHEMBL4680150, “Design, synthesis and biological evaluation of vincamine derivatives as potential pancreatic β-cells protective agents for the treatment of type 2 diabetes mellitus” (Eur J Med Chem, 2020).

Activity calls are given as the source filed them. Unless noted, the rule behind the calls is not given here.

Test [1] concerns INS-1 832/13. In words: Activation of PI3K/Akt signalling pathway in STZ-induced rat INS-1 832/13 cells assessed as increase in phosphorylation of FOX01 at Ser256 residue at 5 to 20 uM after 24 hrs by Western blot analysis. The following applies: filed as activator, dose 5-20 µM.
For test [2], the system named is INS1(832/13). In words: Cytoprotective activity against STZ-induced toxicity in rat INS-1 832/13 cells at 10 uM incubated for 24 hrs by MTT assay. It is filed as functional, cell-based. For orientation: Tetrazolium assays rely on reduction of a dye to a coloured formazan, in cell work by metabolically active cells.
Test [3] deals with INS1(832/13). The test is described as follows: Cytoprotective activity against STZ-induced toxicity in rat INS-1 832/13 cells assessed as mass of apoptotic cells at 5 uM by Annexin V-FITC staining based flow cytometric analysis (reference value: 40.8%). Format: functional.
Test [4] concerns INS-1 832/13. The test is described as follows: Activation of PI3K/Akt signalling pathway in STZ-induced rat INS-1 832/13 cells assessed as decrease in Bim mRNA expression at 5 to 20 uM after 24 hrs by RT-PCR analysis. The note with it: filed as activator, dose 5-20 µM.
The subject of test [5] is INS-1 832/13. In words: Activation of AKT in STZ-induced rat INS-1 832/13 cells assessed as increase in Akt phosphorylation at 5 to 20 uM after 24 hrs by AlphaLISA assay. The note with it: filed as activator, dose 5-20 µM.
Test [6] has as its system INS-1 832/13. The test is described as follows: Activation of PI3K/Akt signalling pathway in STZ-induced rat INS-1 832/13 cells assessed as increase in phosphorylation of GSK3beta at Ser9 residue at 5 to 20 uM after 24 hrs by Western blot analysis. The note with it: filed as activator, dose 5-20 µM.
Test [7] relates to INS-1 832/13. In words: Activation of PI3K/Akt signalling pathway in STZ-induced rat INS-1 832/13 cells assessed as decrease in p21 mRNA expression at 5 to 20 uM after 24 hrs by RT-PCR analysis. The following applies: filed as activator, dose 5-20 µM.
For test [8], the system named is INS1(832/13). In words: Cytoprotective activity against STZ-induced toxicity in rat INS-1 832/13 cells assessed as mass of apoptotic cells at 10 uM by Annexin V-FITC staining based flow cytometric analysis (reference value: 40.8%). It is filed as functional. A general note: In flow cytometry, cells or beads pass a laser one at a time.
For test [9], the system named is INS-1 832/13. The test is described as follows: Activation of AKT in STZ-induced rat INS-1 832/13 cells assessed as increase in Akt phosphorylation at 20 uM after 24 hrs in presence of wortmannin by Western blot analysis. In general terms: A western blot detects proteins with antibodies after separation by electrophoresis.
Test [10] has as its system INS-1 832/13. The test is described as follows: Activation of PI3K/Akt signalling pathway in STZ-induced rat INS-1 832/13 cells assessed as decrease in caspase 3 protein expression at 5 to 20 uM after 24 hrs by Western blot analysis. The note with it: filed as activator, dose 5-20 µM.
The subject of test [11] is INS-1 832/13. In words: Activation of PI3K/Akt signalling pathway in STZ-induced rat INS-1 832/13 cells assessed as decrease in caspase 9 protein expression at 5 to 20 uM after 24 hrs by Western blot analysis. The following applies: filed as activator, dose 5-20 µM.
In test [12] the test system is INS1(832/13). In words: Cytoprotective activity against STZ-induced rat INS-1 832/13 cells assessed as increase in IRS2 mRNA expression at 5 to 20 uM after 24 hrs RT-PCR analysis. It is filed as functional, cell-based. The following applies: dose 5-20 µM.
Test [13] deals with INS-1 832/13. The test is described as follows: Activation of AKT in STZ-induced rat INS-1 832/13 cells assessed as increase in Akt phosphorylation at 5 to 20 uM after 24 hrs by Western blot analysis. The following applies: filed as activator, dose 5-20 µM.
Test [14] relates to INS1(832/13). The test is described as follows: Cytoprotective activity against STZ-induced toxicity in rat INS-1 832/13 cells assessed as mass of apoptotic cells at 20 uM by Annexin V-FITC staining based flow cytometric analysis (reference value: 40.8%). It is filed as functional.
Test [15] relates to INS1(832/13). In words: Potency index, ratio of vincamine EC50 to test compound EC50 for cytoprotective activity in rat INS-1 832/13 cells assessed as inhibition of STZ-induced apoptosis. It is filed as functional.
The subject of test [16] is INS1(832/13). In words: Cytoprotective activity in rat INS-1 832/13 cells assessed as inhibition of STZ-induced apoptosis incubated for 24 hrs by MTT assay. The note with it: INS-1 832/13, 24 h. It is filed as functional, cell-based.
Test [17] concerns INS1(832/13). The test is described as follows: Cytoprotective activity in rat INS-1 832/13 cells assessed as inhibition of STZ-induced apoptosis at 20 uM incubated for 24 hrs in presence of wortmannin by MTT assay. Format: functional, cell-based.
Test [18] deals with INS-1 832/13. In words: Activation of PI3K/Akt signalling pathway in STZ-induced rat INS-1 832/13 cells assessed as decrease in cleaved-caspase 3 protein expression at 5 to 20 uM after 24 hrs by Western blot analysis. The note with it: filed as activator, dose 5-20 µM.
Test [19] relates to INS1(832/13). The test is described as follows: Cytoprotective activity against STZ-induced rat INS-1 832/13 cells assessed as increase in IRS2 protein expression at 5 to 20 uM after 24 hrs Western blot analysis. It is filed as functional, cell-based. The note with it: dose 5-20 µM.
The test system of test [20] is INS1(832/13). In words: Cytoprotective activity in rat INS-1 832/13 cells assessed as inhibition of STZ-induced apoptosis at 20 uM incubated for 24 hrs by MTT assay relative to control. It is filed as functional. On the set-up: scale not given: the % may be the effect or the level left.
Test [21] has as its system INS-1 832/13. In words: Activation of AKT in STZ-induced rat INS-1 832/13 cells assessed as increase in Akt phosphorylation at 20 uM after 24 hrs by Western blot analysis. The note with it: filed as activator.
The test system of test [22] is INS-1 832/13. The test is described as follows: Activation of AKT in STZ-induced rat INS-1 832/13 cells assessed as increase in Akt phosphorylation at 20 uM after 24 hrs by AlphaLISA assay. The following applies: filed as activator.
Test [23] deals with INS1(832/13). The test is described as follows: Cytoprotective activity against STZ-induced toxicity in rat INS-1 832/13 cells at 20 uM incubated for 24 hrs by MTT assay. It is filed as functional, cell-based.

Usually EC50 stands for the concentration needed to bring the measured effect to its halfway point. For the compound `CC[C@@]12C=C(CO)n3c4c(c5ccccc53)CCN(CCC1)[C@H]42`, the outcome with INS-1 832/13 [1], in the test with INS1(832/13) [2], in the test on INS-1 832/13 [4], in the test on INS-1 832/13 [5], with INS-1 832/13 [6] and in the test with INS-1 832/13 [7] was Active. In addition, the outcome with INS-1 832/13 [10], with INS-1 832/13 [11], in the test with INS1(832/13) [12], in the test with INS-1 832/13 [13], in the test with INS-1 832/13 [18] and with INS1(832/13) [19] was Active. The values for the Activity with INS1(832/13) [3], in the test on INS1(832/13) [8] and with INS1(832/13) [14] were 32%, 26.1% and 19.1%, respectively. Moreover, the result in the test on INS-1 832/13 [9] and with INS1(832/13) [17] was inactive. Further, in the test with INS1(832/13) [15], the “Ratio EC50” value worked out at 2. For the same compound, the EC50 in the test on INS1(832/13) [16] was 220 nM.

In the case of `CC[C@]12CCCN3CCc4c(n(c5ccccc45)[C@@](O)(C(=O)OC)C1)[C@@H]32` [VINCAMINE], the figures for the Activity in the test on INS1(832/13) [20] and with INS1(832/13) [14] were 63% and 28.7%, respectively. Also, the result with INS-1 832/13 [21], in the test on INS-1 832/13 [22] and with INS1(832/13) [23] was Active. The result in the test with INS-1 832/13 [9] and in the test on INS1(832/13) [17] was inactive. For the same compound, in the test on INS1(832/13) [16], the concentration for a half-maximal effect (EC50) came out at 11000 nM.

Take `CCNCC1=C[C@]2(CC)CCCN3CCc4c(n1c1ccccc41)[C@@H]32`: the result in the test on INS-1 832/13 [1], in the test with INS1(832/13) [2], in the test on INS1(832/13) [20], in the test with INS-1 832/13 [4], in the test with INS-1 832/13 [5] and with INS-1 832/13 [6] was Active. Further, the result with INS-1 832/13 [7], in the test on INS-1 832/13 [10], in the test on INS-1 832/13 [11], in the test with INS1(832/13) [12], in the test on INS-1 832/13 [13] and with INS-1 832/13 [18] was Active. The outcome with INS1(832/13) [19] was Active. Moreover, the Activity in the test with INS1(832/13) [3] worked out at 31.3%; with INS1(832/13) [8], 29.1%; in the test on INS1(832/13) [14], 24.1%. Besides, the result in the test with INS-1 832/13 [9] and with INS1(832/13) [17] was inactive. In addition, the “Ratio EC50” value in the test with INS1(832/13) [15] was found to be 2. Also, in the test on INS1(832/13) [16], the EC50 came out at 270 nM.
